Legend:
Experiment in all cases: In vitro combination study with tazemetostat, cell proliferation (Cell Titer Glo)
NCI-H1573 = conditions: 7 days tazemetostat pre-treatment, 6 days co-treatment with second agent
A549 = conditions: 7 days tazemetostat pre-treatment, 6 days co-treatment with second agent
NCI-H23 = conditions: 7 days tazemetostat pre-treatment, 6 days co-treatment with second agent
NCI-H1703 = conditions: 7 days tazemetostat pre-treatment, 6 days co-treatment with second agent
NCI-H838 = conditions: 7 days tazemetostat pre-treatment, 6 days co-treatment with second agent
NCI-H1993 = conditions: 7 days tazemetostat pre-treatment, 6 days co-treatment with second agent
Procedure: (§1) Initial proliferation studies were performed to determine the IC50 of tazemetostat in each cell line. For the screen, tazemetostat was used at concentrations bracketed around the IC50 value. If 50% inhibitory concentration was not reached then tazemetostat was tested starting at 10 μM.
(§2) In order to study the effect of dual combination of tazemetostat and a second agent on cell proliferation, cells in log-linear phase growth rate were pre-treated with various concentrations of tazemetostat or DMSO for 7 days in flasks, plated in 384-well plates in the absence of compounds and co-treated on day 8 with tazemetostat or DMSO and the second agent serially diluted for additional 6 days (as depicted in FIG. 1). On day 15, plates were developed for endpoint analysis using Cell Titer Glo to measure ATP content, which was used as an indicator of cell viability. DMSO concentration was kept constant throughout the assay at 0.15% v/v.

Calu-6 = conditions: 7 days tazemetostat pre-treatment, 6 days co-treatment with second agent
Procedure: as §1, §2

NCI-H2122 = conditions: 7 days tazemetostat pre-treatment, 6 days co-treatment with second agent
Procedure: as §1, §2
(§3) All cell lines were obtained from American Type Culture Collection (ATCC; Rockville, Md.). […] A427, Calu-3, Calu-6 cell lines were cultured in EMEM+10% Fetal bovine serum (FBS)+1% v/v Penicillin/Streptomycin (P/S).

Calu-3 = conditions: 7 days tazemetostat pre-treatment, 6 days co-treatment with second agent
NCI-H661 = conditions: 7 days tazemetostat pre-treatment, 6 days co-treatment with second agent
Procedure: as §1, §2, §3

NCI-H522 = conditions: 7 days tazemetostat pre-treatment, 6 days co-treatment with second agent
NCI-H1793 = conditions: 7 days tazemetostat pre-treatment, 6 days co-treatment with second agent
NCI-H460 = conditions: 7 days tazemetostat pre-treatment, 6 days co-treatment with second agent
Procedure: as §1, §2, §3

HCC827 = conditions: 7 days tazemetostat pre-treatment, 6 days co-treatment with second agent
NCI-H2110 = conditions: 7 days tazemetostat pre-treatment, 6 days co-treatment with second agent
NCI-H2030 = conditions: 7 days tazemetostat pre-treatment, 6 days co-treatment with second agent
Procedure: as §1, §2

A427 = conditions: A427; 7 days tazemetostat pre-treatment, 6 days co-treatment with second agent
Procedure: as §1, §2, §3

NCI-H1299 = conditions: 7 days tazemetostat pre-treatment, 6 days co-treatment with second agent
Procedure: as §1, §2

What does the source list for `C[C@]12C=CC(=O)C=C1CC[C@@H]1[C@@H]2[C@@H](O)C[C@@]2(C)[C@H]1CC[C@]2(O)C(=O)CO` [Prednisolone, prednisolone]?
combinatorial effect with tazemetostat (Loewe volume class) (NCI-H1573): Syn. (Loewe volumes greater than 1 denoted “synergy”); combinatorial effect with tazemetostat (Loewe volume class) (A549): Add. (A value between −1 and 1 denoted “additivity”); combinatorial effect with tazemetostat (Loewe volume class) (NCI-H23): No eff.; combinatorial effect with tazemetostat (Loewe volume class) (NCI-H1703): No eff.; combinatorial effect with tazemetostat (Loewe volume class) (NCI-H838): No eff.; combinatorial effect with tazemetostat (Loewe volume class) (NCI-H1993): No eff.; combinatorial effect with tazemetostat (Loewe volume class) (Calu-6): Syn. (Loewe volumes greater than 1 denoted “synergy”); combinatorial effect with tazemetostat (Loewe volume class) (NCI-H2122): Anta. (volumes <−1 denoted “antagonism”); combinatorial effect with tazemetostat (Loewe volume class) (Calu-3): No eff.; combinatorial effect with tazemetostat (Loewe volume class) (NCI-H661): No eff.; combinatorial effect with tazemetostat (Loewe volume class) (NCI-H522): No eff.; combinatorial effect with tazemetostat (Loewe volume class) (NCI-H1793): Syn. (Loewe volumes greater than 1 denoted “synergy”); combinatorial effect with tazemetostat (Loewe volume class) (NCI-H460): Add. (A value between −1 and 1 denoted “additivity”); combinatorial effect with tazemetostat (Loewe volume class) (HCC827): Anta. (volumes <−1 denoted “antagonism”); combinatorial effect with tazemetostat (Loewe volume class) (NCI-H2110): No eff.; combinatorial effect with tazemetostat (Loewe volume class) (NCI-H2030): No eff.; combinatorial effect with tazemetostat (Loewe volume class) (A427): Add. (A value between −1 and 1 denoted “additivity”)

`C#Cc1cccc(Nc2ncnc3cc(OCCOC)c(OCCOC)cc23)c1` [Erlotinib, erlotinib] was tested. Which “combinatorial effect with tazemetostat (Loewe volume class)” value (shortened to “combinatorial effect with tazemetostat”) (HCC827) did it give?
The value was “Syn. (Loewe volumes greater than 1 denoted “synergy”)”.

What does the source list for `C=CC(=O)Nc1cc(Nc2nccc(-c3cn(C)c4ccccc34)n2)c(OC)cc1N(C)CCN(C)C` [AZD9291]?
combinatorial effect with tazemetostat (Loewe volume class) (NCI-H1573): Add. (A value between −1 and 1 denoted “additivity”); combinatorial effect with tazemetostat (Loewe volume class) (A549): Add. (A value between −1 and 1 denoted “additivity”); combinatorial effect with tazemetostat (Loewe volume class) (NCI-H23): Add. (A value between −1 and 1 denoted “additivity”); combinatorial effect with tazemetostat (Loewe volume class) (NCI-H1703): Add. (A value between −1 and 1 denoted “additivity”); combinatorial effect with tazemetostat (Loewe volume class) (NCI-H838): Syn. (Loewe volumes greater than 1 denoted “synergy”); combinatorial effect with tazemetostat (Loewe volume class) (NCI-H1993): Add. (A value between −1 and 1 denoted “additivity”); combinatorial effect with tazemetostat (Loewe volume class) (NCI-H2122): Anta. (volumes <−1 denoted “antagonism”); combinatorial effect with tazemetostat (Loewe volume class) (Calu-3): Syn. (Loewe volumes greater than 1 denoted “synergy”); combinatorial effect with tazemetostat (Loewe volume class) (NCI-H661): Anta. (volumes <−1 denoted “antagonism”); combinatorial effect with tazemetostat (Loewe volume class) (NCI-H522): Syn. (Loewe volumes greater than 1 denoted “synergy”); combinatorial effect with tazemetostat (Loewe volume class) (NCI-H1793): Syn. (Loewe volumes greater than 1 denoted “synergy”); combinatorial effect with tazemetostat (Loewe volume class) (NCI-H460): Add. (A value between −1 and 1 denoted “additivity”); combinatorial effect with tazemetostat (Loewe volume class) (NCI-H1299): Add. (A value between −1 and 1 denoted “additivity”); combinatorial effect with tazemetostat (Loewe volume class) (HCC827): Add. (A value between −1 and 1 denoted “additivity”); combinatorial effect with tazemetostat (Loewe volume class) (NCI-H2110): Syn. (Loewe volumes greater than 1 denoted “synergy”); combinatorial effect with tazemetostat (Loewe volume class) (NCI-H2030): Add. (A value between −1 and 1 denoted “additivity”); combinatorial effect with tazemetostat (Loewe volume class) (A427): Anta. (volumes <−1 denoted “antagonism”)

For `C[C@]1(c2nc3c(C(N)=O)cccc3[nH]2)CCCN1` [Veliparib, veliparib], which “combinatorial effect with tazemetostat” value (NCI-H1573) is on record?
Its value is “Syn. (Loewe volumes greater than 1 denoted “synergy”)”.

And the “combinatorial effect with tazemetostat” value (A549)?
Its value is “No eff”.

What about the “combinatorial effect with tazemetostat” value (NCI-H23) of the same molecule?
Its value is “No eff”.

What about the “combinatorial effect with tazemetostat” value (NCI-H1703) of the same molecule?
The value was “No eff”.

And the “combinatorial effect with tazemetostat” value (NCI-H838)?
The value was “No eff”.

And the “combinatorial effect with tazemetostat” value (NCI-H1993)?
Its value is “No eff”.

What about the “combinatorial effect with tazemetostat” value (Calu-6) of the same molecule?
Its value is “No eff”.

What about the “combinatorial effect with tazemetostat” value (NCI-H2122) of the same molecule?
Its value is “Anta. (volumes <−1 denoted “antagonism”)”.

And the “combinatorial effect with tazemetostat” value (Calu-3)?
Its value is “No eff”.

And the “combinatorial effect with tazemetostat” value (NCI-H661)?
Its value is “No eff”.

What about the “combinatorial effect with tazemetostat” value (NCI-H522) of the same molecule?
Its value is “No eff”.

And the “combinatorial effect with tazemetostat” value (NCI-H1793)?
The value was “No eff”.

And the “combinatorial effect with tazemetostat” value (NCI-H460)?
The value was “Add. (A value between −1 and 1 denoted “additivity”)”.

And the “combinatorial effect with tazemetostat” value (HCC827)?
Its value is “Syn. (Loewe volumes greater than 1 denoted “synergy”)”.

What about the “combinatorial effect with tazemetostat” value (NCI-H2110) of the same molecule?
The value was “No eff”.

And the “combinatorial effect with tazemetostat” value (NCI-H2030)?
The value was “No eff”.

What about the “combinatorial effect with tazemetostat” value (A427) of the same molecule?
Its value is “Syn. (Loewe volumes greater than 1 denoted “synergy”)”.

`CCCS(=O)(=O)Nc1ccc(F)c(C(=O)c2c[nH]c3ncc(-c4ccc(Cl)cc4)cc23)c1F` [Vemurafenib, vemurafenib] was tested. Which “combinatorial effect with tazemetostat” value (HCC827) did it give?
The value was “No eff”.

`CNC(=O)Cn1cc(-c2ccc3c(c2)[C@H](F)C[C@]32NC(=O)N(CC(=O)N(Cc3ccc(F)cc3)[C@@H](C)C(F)(F)F)C2=O)cn1` [Cmpd H] was tested. Which “combinatorial effect with tazemetostat” value (NCI-H1573) did it give?
The value was “Anta. (volumes <−1 denoted “antagonism”)”.

What about the “combinatorial effect with tazemetostat” value (NCI-H23) of the same molecule?
Its value is “Anta. (volumes <−1 denoted “antagonism”)”.

And the “combinatorial effect with tazemetostat” value (NCI-H838)?
The value was “Add. (A value between −1 and 1 denoted “additivity”)”.

And the “combinatorial effect with tazemetostat” value (NCI-H1993)?
Its value is “Syn. (Loewe volumes greater than 1 denoted “synergy”)”.

And the “combinatorial effect with tazemetostat” value (Calu-6)?
Its value is “Add. (A value between −1 and 1 denoted “additivity”)”.

What about the “combinatorial effect with tazemetostat” value (NCI-H2122) of the same molecule?
The value was “Add. (A value between −1 and 1 denoted “additivity”)”.

And the “combinatorial effect with tazemetostat” value (Calu-3)?
The value was “Syn. (Loewe volumes greater than 1 denoted “synergy”)”.

What about the “combinatorial effect with tazemetostat” value (NCI-H661) of the same molecule?
The value was “Anta. (volumes <−1 denoted “antagonism”)”.

What about the “combinatorial effect with tazemetostat” value (NCI-H1793) of the same molecule?
Its value is “Syn. (Loewe volumes greater than 1 denoted “synergy”)”.

And the “combinatorial effect with tazemetostat” value (NCI-H460)?
Its value is “Syn. (Loewe volumes greater than 1 denoted “synergy”)”.

What about the “combinatorial effect with tazemetostat” value (HCC827) of the same molecule?
Its value is “Add. (A value between −1 and 1 denoted “additivity”)”.

What about the “combinatorial effect with tazemetostat” value (NCI-H2110) of the same molecule?
The value was “Add. (A value between −1 and 1 denoted “additivity”)”.

What about the “combinatorial effect with tazemetostat” value (A427) of the same molecule?
The value was “Syn. (Loewe volumes greater than 1 denoted “synergy”)”.
